Experimental findings from patent US9249125B2, “Pyrazole derivatives as p38 MAP inhibitors” (RESPIVERT LIMITED, priority 2012, dated 2016) are described below.

The target in one data set is p38 MAPKγ (Homo sapiens (Human), UniProt P53778). Nature of the data set: Enzyme binding assay (Kinomescan) p38 MAPKγ. Particulars: read-out: % Inhibition for kinase binding at 500 nM p38 MAPKγ. On the procedure: These assays were conducted by DiscoverX (formerly Ambit; San Diego, Calif.). The percentage inhibition produced by incubation with a test compound is calculated relative to the non-inhibited control.

In data set [1] the target is T1, GSK3α (Homo sapiens (Human), UniProt P49840). Put plainly: Enzyme binding assay (Kinomescan) GSK3α. Particulars: read-out: % Inhibition for kinase binding at 500 nM GSK3α. On the procedure:
(§1) The kinase enzyme binding activities of compounds disclosed herein were determined using a proprietary assay which measures active site-directed competition binding to an immobilized ligand (Fabian, M. A. et al., Nature Biotechnol., 2005, 23:329-336). These assays were conducted by DiscoverX (formerly Ambit; San Diego, Calif.). The percentage inhibition produced by incubation with a test compound is calculated relative to the non-inhibited control.

The target of a further data set is HCK (Homo sapiens (Human), UniProt P08631). Nature of the data set: Enzyme binding assay (Kinomescan) HCK. Particulars: read-out: % Inhibition for kinase binding at 500 nM HCK. On the procedure:
as §1

Data set [2] deals with T2, Syk (Homo sapiens (Human), UniProt P43405). Nature of the data set: Enzyme binding assay (Kinomescan) Syk. To be noted: read-out: % Inhibition for kinase binding at 500 nM Syk. On the procedure:
as §1

Data set [3] deals with T3, p38 MAPKα (Homo sapiens (Human), UniProt Q16539). Nature of the data set: Enzyme binding assay (Kinomescan) p38 MAPKα. Particulars: read-out: % Inhibition for kinase binding at 500 nM p38 MAPKα. How it is done:
as §1

Data set [4] deals with Poly I:C-induced ICAM-1 expression in BEAS2B cells. Nature of the data set: Poly I:C-induced ICAM-1 expression in BEAS2B cells. It is filed as cell-based. To be noted: Homo sapiens, BEAS-2B, read-out: Poly IC induced ICAM1 in BEAS2B IC50. In a few lines: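 Cell-based ELISA read at 450 nm minus 655 nm, divided by crystal violet OD595 to normalize for cell number, gave ICAM-1 levels. Readout was taken 18 hr after poly I:C (1 μg/mL, Oligofectamine) transfection of human bronchial BEAS2B cells pretreated 2 hr with test compound.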

The subject of another data set is PBMC cells. Put plainly: Cell mitosis assay. The data set is classed as cell-based, human. How it is done:
Peripheral blood mononucleocytes (PBMCs) from healthy subjects are separated from whole blood (Quintiles, London, UK) using a density gradient (Histopaque-1077, Sigma-Aldrich, Poole, UK). The PBMCs (3 million cells per sample) are subsequently treated with 2% PHA (Sigma-Aldrich, Poole, UK) for 48 hr, followed by a 20 hr exposure to varying concentrations of test compounds. At 2 hr before collection, PBMCs are treated with demecolcine (0.1 μg/mL) (Invitrogen, Paisley, UK,) to arrest cells in metaphase. To observe mitotic cells, PBMCs are permeabilised and fixed by adding Intraprep (50 μL) (Beckman Coulter, France), and stained with anti-phospho-histone 3 (0.26 ng/L) (#9701; Cell Signalling, Danvers, Mass.) and propidium iodide (1 mg/mL) (Sigma-Aldrich, Poole, UK,) as previously described (Muehlbauer P. A. and Schuler M. J., Mutation Research, 2003, 537:117-130). Fluorescence is observed using an ATTUNE flow cytometer (Invitrogen, Paisley, UK), gating for lymphocytes.

Data set [5] concerns LPS-induced IL-8 release in d-U937 cells. Put plainly: LPS-induced IL-8 release in d-U937 cells. The data set is classed as cell-based. Particulars: Homo sapiens, dU937, read-out: LPS Induced Release of Cytokine in d-937 Cells IL-8 IC50. The method, boiled down:
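Sandwich ELISA of culture supernatant gives TNFα and IL-8 levels after a 4 hr challenge with LPS (0.1 μg/mL, E. coli O111:B4). Before stimulation, macrophage-like U937 cells, obtained by 48–72 hr in PMA at 100 ng/mL, sit with compound for 2 hr. Relative EC50 is derived from concentration-response data.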

For the next data set, the system named is d-U937 cells. Nature of the data set: Cell viability: MTT assay. It is filed as cell-based, human. Particulars: 1 μg/mL. The method, boiled down: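 MTT read-out (1 h, absorbance 550 nm) on d-U937 cells after pre-incubation with 1 or 10 μg/mL compound under two regimes: 4 h, 5% FCS, or 24 h, 10% FCS RPMI1640. Values are percent loss of viability relative to vehicle (0.5% DMSO), so increases are reported as negative.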
(Tetrazolium dyes change colour on reduction, which living cells bring about.)

For data set [6], the target named is T1, GSK3α. Nature of the data set: GSK 3α enzyme inhibition (FRET, Z-LYTE). It is filed as biochemical. The method, boiled down:
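Phosphorylation was read as the donor (coumarin) to acceptor (fluorescein) ratio after a 1 hr protease step destroying non-phosphorylated peptide. Before this, compound (4–0.004 μg/mL stocks) sat 2 hr at RT with GSK3α (500 ng/mL stock), followed by 1 hr kinase reaction with 8 μM peptide and 40 μM ATP stocks.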

Another data set concerns the target cSrc (Homo sapiens (Human), UniProt P12931). Put plainly: c-Src enzyme inhibition (FRET, Z-LYTE). The data set is classed as biochemical. In a few lines:
(§2)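 Z-LYTE FRET kinase assay: enzyme (3000 or 2000 ng/mL stock, respectively) preincubated 2 h at RT with compound (4–0.004 μg/mL stocks), then FRET peptide plus ATP (800 μM stock for c-Src, 60 μM for Syk) added for 1 h. Protease development 1 h; phosphorylation from coumarin/fluorescein emission ratio.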

The subject of data set [7] is LPS-induced TNFα release in d-U937 cells. Nature of the data set: LPS-induced TNFα release in d-U937 cells. Particulars: Homo sapiens, dU937, relative to 10 μg/mL BIRB796, read-out: LPS Induced Release of Cytokine in d-937 Cells TNFα REC50. It is filed as cell-based. The method, boiled down: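 PMA-differentiated (100 ng/mL, 48–72 hr) U937 cells pre-incubated with compound 2 hr, then stimulated with LPS (0.1 μg/mL, E. coli O111:B4) for 4 hr. Supernatant TNFα and IL-8 measured by sandwich ELISA; inhibition versus vehicle control, REC50 from concentration-response curve.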

In data set [8] the target is T3, p38 MAPKα. Nature of the data set: p38 MAPKα enzyme inhibition (FRET, Z-LYTE). It is filed as biochemical.
The target of data set [9] is T2, Syk. Nature of the data set: Syk enzyme inhibition (FRET, Z-LYTE). The data set is classed as biochemical. In a few lines: as §2

T1 sequence (P49840 whole entry): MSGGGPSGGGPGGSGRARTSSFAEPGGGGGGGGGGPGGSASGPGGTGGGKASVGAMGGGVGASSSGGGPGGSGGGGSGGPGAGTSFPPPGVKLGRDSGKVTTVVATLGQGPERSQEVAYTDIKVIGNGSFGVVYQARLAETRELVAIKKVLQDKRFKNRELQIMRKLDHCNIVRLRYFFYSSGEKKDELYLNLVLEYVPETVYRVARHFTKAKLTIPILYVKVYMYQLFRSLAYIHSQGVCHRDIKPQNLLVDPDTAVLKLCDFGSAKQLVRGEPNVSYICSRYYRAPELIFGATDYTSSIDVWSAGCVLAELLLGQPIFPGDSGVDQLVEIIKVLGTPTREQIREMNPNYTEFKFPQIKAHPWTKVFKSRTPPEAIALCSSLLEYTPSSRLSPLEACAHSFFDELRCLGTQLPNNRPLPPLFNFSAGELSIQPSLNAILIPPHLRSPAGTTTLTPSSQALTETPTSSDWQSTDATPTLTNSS
cSrc, sequence (P12931 whole entry, looked up): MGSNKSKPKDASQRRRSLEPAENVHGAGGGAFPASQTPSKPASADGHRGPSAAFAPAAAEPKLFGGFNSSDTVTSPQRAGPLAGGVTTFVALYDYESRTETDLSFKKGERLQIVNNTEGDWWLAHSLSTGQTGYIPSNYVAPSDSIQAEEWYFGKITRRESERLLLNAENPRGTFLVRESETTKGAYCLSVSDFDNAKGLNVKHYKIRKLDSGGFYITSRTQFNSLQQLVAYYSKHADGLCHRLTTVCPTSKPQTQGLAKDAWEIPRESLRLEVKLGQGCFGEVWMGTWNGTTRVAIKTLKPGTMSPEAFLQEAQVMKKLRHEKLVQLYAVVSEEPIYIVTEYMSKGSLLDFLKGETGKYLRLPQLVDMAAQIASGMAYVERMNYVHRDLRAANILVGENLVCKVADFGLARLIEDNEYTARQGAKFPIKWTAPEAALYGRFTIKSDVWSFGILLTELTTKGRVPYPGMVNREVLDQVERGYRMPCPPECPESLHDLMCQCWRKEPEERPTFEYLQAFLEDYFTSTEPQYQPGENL
T3 sequence (Q16539 whole entry): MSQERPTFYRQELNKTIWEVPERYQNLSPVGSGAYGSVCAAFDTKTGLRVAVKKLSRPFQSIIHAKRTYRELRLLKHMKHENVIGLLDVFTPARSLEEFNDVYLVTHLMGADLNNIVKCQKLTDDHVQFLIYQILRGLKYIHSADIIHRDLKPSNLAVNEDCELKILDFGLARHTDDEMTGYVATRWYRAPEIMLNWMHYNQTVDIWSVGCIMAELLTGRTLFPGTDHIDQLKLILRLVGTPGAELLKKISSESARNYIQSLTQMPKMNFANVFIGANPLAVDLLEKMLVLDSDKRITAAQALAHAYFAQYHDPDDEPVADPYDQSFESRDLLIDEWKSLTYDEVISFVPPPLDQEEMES
HCK, sequence (P08631 22-526): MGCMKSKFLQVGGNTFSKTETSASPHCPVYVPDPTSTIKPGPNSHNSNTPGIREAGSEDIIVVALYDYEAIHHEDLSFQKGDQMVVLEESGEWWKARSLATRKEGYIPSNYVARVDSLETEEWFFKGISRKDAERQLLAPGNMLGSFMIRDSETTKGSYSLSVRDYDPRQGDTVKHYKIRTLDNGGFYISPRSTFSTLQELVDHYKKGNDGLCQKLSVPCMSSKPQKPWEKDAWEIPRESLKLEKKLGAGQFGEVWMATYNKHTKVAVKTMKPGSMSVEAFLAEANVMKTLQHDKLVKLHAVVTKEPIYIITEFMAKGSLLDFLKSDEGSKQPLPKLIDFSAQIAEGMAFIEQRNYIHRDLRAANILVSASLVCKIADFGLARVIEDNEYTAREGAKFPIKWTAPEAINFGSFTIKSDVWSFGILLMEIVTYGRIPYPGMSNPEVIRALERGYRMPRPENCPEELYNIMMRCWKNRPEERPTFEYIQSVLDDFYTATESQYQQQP
p38 MAPKγ, sequence (P53778 whole entry): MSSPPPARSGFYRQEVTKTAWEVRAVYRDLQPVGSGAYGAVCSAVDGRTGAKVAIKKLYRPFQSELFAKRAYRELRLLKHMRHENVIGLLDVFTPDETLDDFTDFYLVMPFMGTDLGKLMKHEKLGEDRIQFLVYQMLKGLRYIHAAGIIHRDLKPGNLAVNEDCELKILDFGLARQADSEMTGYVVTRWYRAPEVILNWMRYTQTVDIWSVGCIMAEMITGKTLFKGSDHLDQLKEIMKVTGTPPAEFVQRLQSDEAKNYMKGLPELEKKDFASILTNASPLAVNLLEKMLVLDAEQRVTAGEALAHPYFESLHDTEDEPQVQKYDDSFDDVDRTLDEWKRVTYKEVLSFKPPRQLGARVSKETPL

Usually inhibition stands for the drop in the measured response relative to a control, in per cent. On to `CNC(=O)c1cc(Oc2ccc(NC(=O)Nc3ccc(Cl)c(C(F)(F)F)c3)cc2)ccn1` [Sorafenib], for which the inhibition at 0.5 µM at p38 MAPKγ turned out to be 28%; on GSK3α [1], 26%; at HCK, 22%; on Syk [2], 14%; on p38 MAPKα [3], 77%.
As a reminder, the IC50 is the point on the concentration scale where inhibition reaches its midpoint. Regarding `COc1ccc(-n2nc(C(C)C)cc2NC(=O)Nc2ccc(Oc3ccnc(Nc4cc(C)c5[nH]ncc5c4)n3)c3ccccc23)cc1` [Example 9, 1-(3-Isopropyl-1-(4-methoxyphenyl)-1H-pyrazol-5-yl)-3-(4-((2-((7-methyl-1H-indazol-5-yl)amino)pyrimidin-4-yl)oxy)naphthalen-1-yl)urea], the concentration for half-maximal inhibition (IC50) in data set [4] was 1.2 nM; in data set [5], 3.9 nM; against GSK3α [6], greater than 15600 nM; at cSrc it was 4 nM; at p38 MAPKα [8], 38 nM; at Syk [9], 7 nM. For the same compound, the “Mitosis Assay % inhibition in PBMC cells at 5 μg/mL” value (shortened to “Mitosis Assay % inhibition”) with PBMC cells is 23.7%. Further, the “MTT Assay Cell viability at time point in d-U937 cells 4 h” value with d-U937 cells was “−ve (−ve and +ve indicate that the value is below and above respectively, the no significant effect threshold, defined as 30% inhibition at 1 μg/mL at the time point indicated.)”. In addition, in the data set with d-U937 cells, the “MTT Assay Cell viability at time point in d-U937 cells 24 h” value is “−ve (−ve and +ve indicate that the value is below and above respectively, the no significant effect threshold, defined as 30% inhibition at 1 μg/mL at the time point indicated.)”. In addition, the EC50 in [7] amounted to 1.6 nM.
On to `Cc1ccc(-n2nc(C(C)(C)C)cc2NC(=O)Nc2ccc(Oc3ccnc(Nc4ccc5[nH]nnc5c4)n3)c3ccccc23)cc1` [Example 36, 1-(4-((2-((1H-benzo[d][1,2,3]triazol-5-yl)amino)pyrimidin-4-yl)oxy)naphthalen-1-yl)-3-(3-(tert-butyl)-1-(p-tolyl)-1H-pyrazol-5-yl)urea], for which the IC50 in data set [4] was determined as 6.3 nM; in data set [5] it was 2.3 nM; against GSK3α [6] it was 2100 nM; at cSrc, 14 nM; against p38 MAPKα [8], 92 nM; against Syk [9], 75 nM. In addition, in the data set with PBMC cells, the “Mitosis Assay % inhibition” value is given as 41.2%. Moreover, the “MTT Assay Cell viability at time point in d-U937 cells 4 h” value with d-U937 cells was “−ve (−ve and +ve indicate that the value is below and above respectively, the no significant effect threshold, defined as 30% inhibition at 1 μg/mL at the time point indicated.)”. Moreover, the “MTT Assay Cell viability at time point in d-U937 cells 24 h” value in the data set with d-U937 cells is “−ve (−ve and +ve indicate that the value is below and above respectively, the no significant effect threshold, defined as 30% inhibition at 1 μg/mL at the time point indicated.)”. Further, the EC50 in data set [7] was 17.2 nM.
With `CC(C)(C)c1cc(NC(=O)Nc2ccc(Oc3cc(Nc4ccc5[nH]ncc5c4)ncn3)c3ccccc23)n(-c2ccc(OCCN3CCOCC3)cc2)n1` [Example 70, 1-(4-((6-((1H-indazol-5-yl)amino)pyrimidin-4-yl)oxy)naphthalen-1-yl)-3-(3-(tert-butyl)-1-(4-(2-morpholinoethoxy)phenyl)-1H-pyrazol-5-yl)urea], the IC50 was found to be 4.1 nM in [4]; 2.7 nM in [5]; 3250 nM against GSK3α [6]; 13 nM at cSrc; 33 nM against p38 MAPKα [8]; 14 nM against Syk [9]. The “Mitosis Assay % inhibition” value in the data set on PBMC cells turned out to be 62.4%. Also, in the data set with d-U937 cells, the “MTT Assay Cell viability at time point in d-U937 cells 4 h” value is “−ve (−ve and +ve indicate that the value is below and above respectively, the no significant effect threshold, defined as 30% inhibition at 1 μg/mL at the time point indicated.)”. Moreover, the “MTT Assay Cell viability at time point in d-U937 cells 24 h” value in the data set on d-U937 cells was “−ve (−ve and +ve indicate that the value is below and above respectively, the no significant effect threshold, defined as 30% inhibition at 1 μg/mL at the time point indicated.)”. The EC50 in data set [7] stood at 2.5 nM.
Regarding `CC(C)(C)c1cc(NC(=O)Nc2ccc(Oc3ccnc(Nc4ccc5c(c4)NC(=O)C5)n3)c3ccccc23)n(-c2ccc(OCCN3CCOCC3)nc2)n1` [Example 90, 1-(3-(tert-butyl)-1-(6-(2-morpholinoethoxy)pyridin-3-yl)-1H-pyrazol-5-yl)-3-(4-((2-((2-oxoindolin-6-yl)amino)pyrimidin-4-yl)oxy)naphthalen-1-yl)urea], the IC50 in [4] was 14.6 nM; in data set [5], 4.1 nM; against GSK3α [6], 267 nM; against cSrc, less than 1 nM; on p38 MAPKα [8] it was 44 nM; against Syk [9], less than 1 nM. For the same compound, the “Mitosis Assay % inhibition” value with PBMC cells is listed as 15.4%. In addition, the “MTT Assay Cell viability at time point in d-U937 cells 4 h” value with d-U937 cells was “−ve (−ve and +ve indicate that the value is below and above respectively, the no significant effect threshold, defined as 30% inhibition at 1 μg/mL at the time point indicated.)”. Also, the “MTT Assay Cell viability at time point in d-U937 cells 24 h” value with d-U937 cells was “−ve (−ve and +ve indicate that the value is below and above respectively, the no significant effect threshold, defined as 30% inhibition at 1 μg/mL at the time point indicated.)”. In data set [7], the EC50 is 1.6 nM.
